# Laboratory results from ChEMBL document CHEMBL5143630, “α-Synuclein binding activity of the plant growth promoter asterubine” (Bioorg Med Chem Lett, 2022).
# Calls of active or inactive are those of the source. No cut-off for these calls is given here.
# What was measured:
# [1] = target: Alpha-synuclein (Homo sapiens) (UniProt P37840); assay: Binding affinity to human alpha-synuclein expressed in Escherichia coli BL21(DE3) assessed as compound-protein complex formation at ratio of 1:1 incubated at compound:protein ratio of 10:1 for 3 hrs by ESI-MS spectrum analysis
# [2] = Cytotoxicity against preformed fibrils-treated mouse TH-positive dopaminergic neurons at 0.1 to 10 uM incubated for 7 days by immunostaining analysis; assay type: toxicity, cell-based; settings: neuron, 168 h, dose 0.1-10 µM, time 7 day
smiles,measurement,setting,value
CN(C)C(=N)NCCS(=O)(=O)O,Activity,[1],Active
same,Activity,[2],Non-Toxic
